Tests used:
[1] = tested on: patients with treatment-resistant depression; assay: Adverse event monitoring after infusion in the trial; format: in vivo, human; conditions: 0.5 mg/kg over 40 min infusion, monitoring for 4 hours post-infusion
Description: Infusion. Participants were randomized 2:1 to ketamine (0.5 mg/kg over 40 min) or saline (50 ml 0.9% Sodium Chloride over 40 min) infusion. All infusions were administered by blinded, licensed nurses in a medical hospital setting with a linked ACLS-certified team, with blinded study physician (RHH) oversight and safety/adverse event monitoring sustained for 4-hours post-infusion.

[2] = tested on: depressed patients; conditions: cited from earlier work
[3] = tested on: patients with treatment-resistant depression; assay: Randomized controlled trial of ketamine infusion and automated self-association training (ASAT/NT): MADRS depression severity; format: in vivo, human
Description: Participants. To achieve the initial recruitment target of n=150 patients, the study enrolled and randomized n=154 patients, continuing enrollment until a final sample was acquired that included the full target of n=150 patients who completed, at a minimum, (1) an infusion day, (2) a 24-hour assessment visit, and (3) ≥75% of intended Cognitive Training (active or sham NT) visits. All n=154 randomized patients were included in the reported intent-to-treat analyses. In particular, 154 adult (age 18-60) patients reporting moderate-to-severe levels of depression [Montgomery-Asberg Depression Rating Scale (MADRS; [Montgomery S A, Asberg M: A new depression scale designed to be sensitive to change. Br J Psychiatry. 1979; 134:382-9]) score 25], lower-than-normative self-reported self-esteem [i.e., scoring outside of 1SD from the normative mean on the Cognitive Triad Inventory [Beckham E E, Leber W R, Watkins J T, Boyer J L, Cook J B: Development of an instrument to measure Beck's cognitive triad: the Cognitive Triad Inventory. J Consult Clin Psychol. 1986; 54(4):566-7]“self” subscale [Anderson K W, Skidmore J R: Empirical analysis of factors in depressive cognition: the cognitive triad inventory. J Clin Psychol. 1995; 51(5):603-9; Possel P: Cognitive Triad Inventory (CTI): psychometric properties and factor structure of the German translation. J Behav Ther Exp Psychiatry. 2009; 40(2):240-7] and/or the Rosenberg Self-Esteem Scale], and at least one failed, adequate trial of an FDA-approved antidepressant medication in the current depressive episode (per Antidepressant Treatment Response Questionnaire; ATRQ [Chandler G M, losifescu DV, Pollack M H, Targum S D, Fava M: RESEARCH: Validation of the Massachusetts General Hospital Antidepressant Treatment History Questionnaire (ATRQ). CNS Neurosci Ther. 2010; 16(5):322-5]), were recruited and randomized. Any existing depression treatment regimens were required to be stably maintained beginning 4 weeks prior to screening and throughout the trial. See FIG. 10, Table S1 and Examples 6-8 below for sample characteristics.
Assessment Timeline. An experienced, Master's level clinical rater (CRS) administered the MADRS, the study's pre-specified primary endpoint throughout the acute (30-day) study period, to assess overall depression severity. The measure was repeated at screening (used for eligibility determinations only), pre-infusion baseline (infusion −1 hour; the clinical rater then left and was not present during any intervention procedure), infusion +24 hours (prior to the first session of active/sham NT), +5, +12, +21, and +30 days. […] This study also contemplates including and analyzing neurocognitive (e.g., neuroimaging; performance-based) assessments of ketamine's impact. Adequacy of both patient and rater blinding, for both infusion and NT allocation, was assessed by self-report using a 0-100 sliding scale (0=definitely placebo/sham; 50=1 don't know; 100=definitely ketamine/active) at infusion+30 days.
Interventions. A randomization table using permuted blocks of 3 or 6, stratified by (1) biological sex at birth and (2) modest vs. severe treatment resistance (severe=≥3 FDA-approved antidepressant trials in episode, per ATRQ), was generated by an independent statistical consultant at study start and maintained by the study pharmacist, who, at the point of randomization, conveyed the NT allocation (but not the infusion allocation) to a single study staff member who was assigned to that patient. This single staff member was tasked with opening the correct computer program to deliver the NT sessions to that patient, but was not involved in, nor present for, any outcome ratings. Blinding for all other study personnel was maintained until after the final patient's Day 30 assessment was complete.
Infusion. Participants were randomized 2:1 to ketamine (0.5 mg/kg over 40 min) or saline (50 ml 0.9% Sodium Chloride over 40 min) infusion. […]

[4] = 24 hours post-infusion, ketamine vs saline

Compound: CNC1(c2ccccc2Cl)CCCCC1=O (centres unmarked) [ketamine]
- adverse events [1]: mild-to-moderate, time-limited
- response rates in depressed patients ([2]; as early as 2 hours post-ketamine): 55-80%
- time within which symptoms are dramatically reduced ([2]; intravenous ketamine): 2 to 24 h
- duration of improvements provided by a single infusion in isolation ([2]; prior published work): 1-2 week
- time after which effects of a single infusion dissipate ([2]; single infusion): 3 to 7 days
- remitter rate (MADRS≤9) ([3]; 24 hours post-infusion): 28%
- responder rate (≥50% decrease from pre-infusion MADRS baseline) ([3]; 24 hours post-infusion): 52%
- NNT for remission [3, 4]: 4.2
- number-needed-to-treat (NNT) for response [3, 4]: 3.7
- MADRS total depression score, group by time interaction, standardized β ([3]; infusion phase, pre-infusion to 24 hours post-infusion, ketamine 0.5 mg/kg over 40 min vs saline): −1.30
- duration of the rapid antidepressant effect of a single infusion extended by Cognitive Training ([3]; single ketamine infusion followed by 8 sessions of Cognitive Training): at least 30 days

— US20250186734A1, “METHODS AND SYSTEMS FOR AUTOMATED NEUR[…] TO EXTEND RELIEF OF TREATMENT-RESISTANT MENTAL DISORDERS” (UNIVERSITY OF PITTSBURGH-OF THE COMMONWEALTH SYSTEM OF …, priority 2022, published 2025)
